Measurements: patent US20190125790A1, “USE OF HYPOCHLOROUS ACID AS A TOPICAL ANTIMICROBIAL” (BIIOSMART TECHNOLOGIES LLC, priority 2016, published 2019)

How the values were obtained:
[1] = test system: Enterobacter cloacae; assay: Antimicrobial efficacy of HOCl skin cleanser (Table 1); format: cell-based; settings: 0.01% HOCl; 30 seconds
[2] = Randomized double blind placebo controlled trial as sexual cleanser; format: in vivo, human; settings: six months
Excerpt: The purpose of this study was to evaluate the real world use and effect of the solution in a group of 47 willing participants located in Cartagena, Colombia. These willing participants were all active sex workers, whom on a weekly basis, were actively engaged in sexual intercourse with the general public. This demographic was selected as a “high risk” group of individuals that frequently encounter many forms of sexually transmitted infections. Throughout the study, the “HOCl test” group was compared with the “placebo” group in an effort to gauge the efficacy of prevention and treatment for contact-to-contact sexually transmitted infections as well as common infections related to sex. […] The patients were required to complete extensive evaluations regarding their sexual health and lifestyles. The duration of the study was six months.

[3] = Acute Oral Toxicity; settings: both sexes, rat, in vivo, 5000 mg/Kg, Wistar Rats, 0.05% concentration HOCl aqueous solutions, males and females, read-out: acute median lethal dose LD50
Excerpt: (§1) Table 5. contains the results of several acute and sub-chronic toxicity tests.

[4] = test system: VRE; assay: Efficacy at 30 seconds (Table 2); format: cell-based, vancomycin-resistant enterococci; settings: 0.01 to 0.05% aqueous solution
[5] = test system: S. pyogenes; assay: Antimicrobial efficacy of HOCl skin cleanser (Table 1); format: cell-based; settings: 0.01% HOCl; 30 seconds
[6] = test system: E. coli Carbapenem Resistant; assay: Efficacy at 30 seconds (Table 2); format: cell-based; settings: 0.01 to 0.05% aqueous solution
[7] = test system: Enterococcus. faecium; assay: Antimicrobial efficacy of HOCl skin cleanser (Table 1); format: cell-based; settings: 0.01% HOCl; 30 seconds
[8] = test system: S. aureus Linezolid Resistant; assay: Efficacy at 30 seconds (Table 2); format: cell-based; settings: 0.01 to 0.05% aqueous solution
[9] = test system: Campylobacter rectus; assay: Antimicrobial efficacy of HOCl skin cleanser (Table 1); format: cell-based; settings: 0.01% HOCl; 30 seconds
[10] = test system: Enterococcus faecalis; assay: as above; format: cell-based; settings: 0.01% HOCl; 30 seconds
[11] = test system: Pseudomona aeruginosa; assay: as above; format: cell-based; settings: 0.01% HOCl; 30 seconds
[12] = test system: host cells; settings: 0.04% HOCl aqueous solution
[13] = test system: Herpes Simplex; assay: Efficacy at 30 seconds (Table 2); format: cell-based; settings: 0.01 to 0.05% aqueous solution
[14] = test system: Enterovirus-71 (EV-71); assay: Test of viral inactivation, ASTM E1052-96 viruses in suspension; format: cell-based; settings: 0.04% HOCl aqueous solution; 30 seconds
[15] = test system: Human papilloma virus; assay: Antimicrobial efficacy of HOCl skin cleanser (Table 1); format: cell-based; settings: 0.01% HOCl; 30 seconds
[16] = test system: Vesicular Stomatitis Virus (VSV); format: cell-based; settings: 0.04% HOCl aqueous solution; 30 seconds
[17] = test system: Haemophilus influenzae; assay: ASTM E2315 Time Kill Assay for Antimicrobial Agents; format: cell-based; settings: 0.046% HOCl aqueous solution; 30 seconds; high organic load
Experimental: (§2) Table 3. below represents the efficacy of 0.046% aqueous hypochlorous acid solution in the presence of high organic load. ASTM E2315 Time Kill Assay for Antimicrobial Agents. The study was performed in ATS labs in Minnesota recommended by the U.S. FDA's Tentative Final Monograph for OTC Healthcare Antiseptic Drug. […] Additional times were evaluated: 1 minute, 5 minutes, and 10 minutes, all with and without organic soil (Using 10% whole milk and 5% Fetal Bovine Serum). The trend in the efficiency is maintained under the same proportions.

[18] = test system: A. baumanii; assay: as above; format: cell-based; settings: 0.046% HOCl aqueous solution; 30 seconds; high organic load
Experimental: as §2

[19] = test system: P. aeruginosa; assay: as above; format: cell-based; settings: 0.046% HOCl aqueous solution; 30 seconds; high organic load
Experimental: as §2

[20] = test system: P. mirabilis; assay: as above; format: cell-based; settings: 0.046% HOCl aqueous solution; 30 seconds; high organic load
Experimental: as §2

[21] = test system: S. Epidermidis; assay: as above; format: cell-based; settings: 0.046% HOCl aqueous solution; 30 seconds; high organic load
Experimental: as §2

[22] = test system: K. pneumoniae - ESBL; assay: as above; format: cell-based; settings: 0.046% HOCl aqueous solution; 30 seconds; high organic load
Experimental: as §2

[23] = Teratogenicity; format: in vivo
Excerpt: as §1

[24] = USP <51> Antimicrobial Effectiveness Testing; format: cell-based; settings: 0.05% HOCl aqueous solution
Excerpt: A 0.05% HOCl aqueous solution is intended for the cleansing and removal of the most common bacteria and viruses associated with skin-to-skin sexually transmitted diseases (pre and post sexual activity) to promote general sexual hygiene.

[25] = test system: Bovine Diarrhea virus; assay: Efficacy at 30 seconds (Table 2); format: cell-based; settings: 0.01 to 0.05% aqueous solution
[26] = Biocompatibility and animal testing, overall; format: in vivo; settings: 0.05% hypochlorous acid solution
Excerpt: The extensive biocompatibility and animal testing that have been performed supports the safety and efficacy of the 0.05% hypochlorous acid solution. […] Due to the safety of the solution, the hypochlorous acid solution can be used repeatedly without altering or changing the properties of the skin and mucous membranes.

[27] = HOCl (0.046%) test group, 24 patients

Question: What does the source list for `OCl` [HOCl, hypochlorous acid]?
Answer: % Reduction [1]: 99.99%; Log Reduction [1]: >5.76 Log10; rashes from irritation [2, 27]: two; rashes from irritation, increase [2, 27]: 8.3%; total infections [2, 27]: three; total infections, increase [2, 27]: 13.5%; urinary tract infection [2, 27]: one; urinary tract infection, increase [2, 27]: 4.2%; yeast infections [2, 27]: zero; reported contact-to-contact STIs ([2]; HOCl (0.046%) test group, 24 patients, 85% confidence level): zero; change of the pH of the vagina ([2]; all 47 patients): No significant change; LD50 [3]: > 5000 mg/kg; % Reduction [4]: 99.999%; Log Reduction [4]: >5.51 Log10; % Reduction [5]: 99.99%; Log Reduction [5]: >6.12 Log10; % Reduction [6]: 99.999%; Log Reduction [6]: >5.57 Log10; % Reduction [7]: 99.99%; Log Reduction [7]: >6.21 Log10; % Reduction [8]: 99.999%; Log Reduction [8]: >5.84 Log10; % Reduction [9]: 99.99%; Log Reduction [9]: >5.96 Log10; % Reduction [10]: 99.999%; Log Reduction [10]: >6.5 Log10; % Reduction [11]: 99.99%; Log Reduction [11]: >5.94 Log10; adverse effects to the host cells [12]: no adverse effects to the host cells; % Reduction [13]: 99.999%; Log Reduction [13]: >5.35 Log10; % Reduction [14]: 99.998%; Log Reduction [14]: 4.83; % Reduction [15]: 99.99%; Log Reduction [15]: >6.0 Log10; % Reduction [16]: 99.9999%; Log Reduction [16]: 7.66; % Reduction [17]: >99.99%; Log Reduction [17]: >4.81 Log10; % Reduction [18]: 99.999%; Log Reduction [18]: >6.15 Log10; % Reduction [19]: 99.999%; Log Reduction [19]: >5.96 Log10; % Reduction [20]: 99.999%; Log Reduction [20]: >5.65 Log10; % Reduction [21]: 99.999%; Log Reduction [21]: >5.60 Log10; % Reduction [22]: 99.999%; Log Reduction [22]: >5.76 Log10; mortalities ([23]; Oral administration of 1000 mg/Kg/day, Females and Pregnant Wistar rats): No mortalities, considered; toxicity assessment ([23]; rat, in vivo, po, 1000 mg/kg/day): non-toxic; USP <51> Antimicrobial Effectiveness Testing outcome [24]: meets all requirements of USP <51> Antimicrobial Effectiveness Testing; % Reduction [25]: 99.999%; Log Reduction [25]: >5.35 Log10; adverse effects to the skin or mucous membranes [26]: without adverse effects to the skin or mucous membranes
